In BindingDB's records for patent US20250313563 (The Broad Institute, 2025):
“And” between values parts separate entries of the source, which are not always exact repeats. Identical values can stand only once.

What was measured:
[1] = molecular target: Glycogen synthase kinase-3 alpha (Homo sapiens, UniProt P49840); assay: TR-FRET Assay
Summary of the method: (§1)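 Enzyme and test compound were first incubated together for 30 minutes in assay buffer. The kinase reaction followed and was stopped with EDTA. The pSer641 signal was read by time-resolved FRET.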

[2] = molecular target: Glycogen synthase kinase-3 beta (Homo sapiens, UniProt P49841); assay: TR-FRET Assay
Summary of the method: as §1

Sequence of Glycogen synthase kinase-3 alpha (P49840 whole entry): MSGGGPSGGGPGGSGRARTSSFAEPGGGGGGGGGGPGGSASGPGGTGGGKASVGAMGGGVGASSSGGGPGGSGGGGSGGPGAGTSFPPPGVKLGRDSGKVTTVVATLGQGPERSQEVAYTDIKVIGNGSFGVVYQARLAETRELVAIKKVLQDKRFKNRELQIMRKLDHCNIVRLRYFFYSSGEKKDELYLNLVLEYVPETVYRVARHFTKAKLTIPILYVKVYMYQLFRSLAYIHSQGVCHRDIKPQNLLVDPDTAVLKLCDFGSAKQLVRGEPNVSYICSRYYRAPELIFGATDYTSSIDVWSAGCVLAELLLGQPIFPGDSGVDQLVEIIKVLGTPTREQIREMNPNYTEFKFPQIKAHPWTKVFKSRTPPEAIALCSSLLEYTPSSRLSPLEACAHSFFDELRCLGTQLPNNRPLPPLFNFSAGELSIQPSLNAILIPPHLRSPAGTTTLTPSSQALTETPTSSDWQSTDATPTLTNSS
Sequence of Glycogen synthase kinase-3 beta (P49841 whole entry): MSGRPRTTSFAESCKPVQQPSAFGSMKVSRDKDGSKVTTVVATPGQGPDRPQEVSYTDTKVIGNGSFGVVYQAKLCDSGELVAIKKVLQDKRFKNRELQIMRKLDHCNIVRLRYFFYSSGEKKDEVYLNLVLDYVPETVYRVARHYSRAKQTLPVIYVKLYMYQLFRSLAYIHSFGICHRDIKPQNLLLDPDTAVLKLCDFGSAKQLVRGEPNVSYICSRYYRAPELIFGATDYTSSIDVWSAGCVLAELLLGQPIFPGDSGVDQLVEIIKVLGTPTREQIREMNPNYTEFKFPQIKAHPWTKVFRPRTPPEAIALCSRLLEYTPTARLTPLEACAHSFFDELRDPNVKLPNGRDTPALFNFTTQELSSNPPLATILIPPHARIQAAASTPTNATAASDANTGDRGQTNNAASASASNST

| IC50 [1] | IC50 [2] | Compound |
| --- | --- | --- |
| 100 to 1000 nM | 1000 to 5000 nM | CC[C@]1(c2cccc(-c3c(C)nn(C)c3C)c2)C2=C(CC(C)(C)NC2=O)NC2N=NC(C(F)(F)F)=C21 (some centres undefined) [US20250313563, Compound 948417] |
| < 100 nM and 100 to 1000 nM | < 100 nM and 1000 to 5000 nM | CC1(C)CC(=O)C2=C(C1)NC1=C(CN=N1)[C@]21CCN(S(=O)(=O)c2ccccc2)C1 [US20250313563, Compound 943485] |
| > 5000 nM | > 5000 nM | CC[C@]1(c2cccc(-c3ccnc4ccc(OC)cc34)c2)C2=CN=NC2NC2=C1C(=O)NC(C)(C)C2 (some centres undefined) [US20250313563, Compound 948518] |
| < 100 nM | < 100 nM and 100 to 1000 nM | CCC1(c2cccc(N3CCCc4ncccc43)c2)C2=CN=NC2NC2=C1C(=O)CC(C)(C)C2 (centres undefined) [US20250313563, Compound 889639] |
| > 5000 nM | > 5000 nM | CC1(C)CC(=O)C2=C(C1)NC1=C(CN=N1)C21CN(c2ccncc2)C1 [US20250313563, Compound 912077] |
| < 100 nM | < 100 nM | COc1cccc(S(=O)(=O)N2CC[C@@]3(C2)C2=C(N=NC2)NC2=C3C(=O)CC(C)(C)C2)c1 [US20250313563, Compound 943486] |
| 100 to 1000 nM | 1000 to 5000 nM | CCC1(c2cccc(N3C[C@H](C)C[C@H](C)C3)c2)C2=CN=NC2NC2=C1C(=O)CC(C)(C)C2 (some centres undefined) [US20250313563, Compound 885237] |
| < 100 nM | 100 to 1000 nM | CCC1(c2cccc(-c3cnn(C)c3)c2)C2=CN=NC2NC2=C1C(=O)CC(C)(C)C2 (centres undefined) [US20250313563, Compound 816871] |
| 100 to 1000 nM | 100 to 1000 nM | CC[C@]1(c2cccc(-c3ccncc3F)c2)C2=C(CC(C)(C)NC2=O)NC2N=NC(C(F)(F)F)=C21 (some centres undefined) [US20250313563, Compound 948770] |
| < 100 nM | < 100 nM | CCC1(c2cccc(-c3cnc4n3CCCC4)c2)C2=CN=NC2NC2=C1C(=O)CC(C)(C)C2 (centres undefined) [US20250313563, Compound 943535] |
| < 100 nM | 100 to 1000 nM | Cn1cc(S(=O)(=O)N2CCC3(CC2)C2=C(N=NC2)NC2=C3C(=O)CC(C)(C)C2)nn1 [US20250313563, Compound 947898] |
| 1000 to 5000 nM | > 5000 nM | CC[C@@]1(c2cccc(-c3ccnc(C)c3)c2)C2=CN=NC2NC2=C1C(=O)N[C@@H](C)C2 (some centres undefined) [US20250313563, Compound 926302] |
| < 100 nM | 100 to 1000 nM | Cn1ccc(S(=O)(=O)N2CCC[C@@]3(CC2)C2=CN=NC2NC2=C3C(=O)CC(C)(C)C2)n1 (some centres undefined) [US20250313563, Compound 932660] |
| < 100 nM | < 100 nM | CC1(C)CC(=O)C2=C(C1)NC1=C(CN=N1)C21CC(c2ccccc2)C1 (centres undefined) [US20250313563, Compound 917081] |
| 100 to 1000 nM | > 5000 nM | CC[C@@]1(c2cccc(-c3cnnc(C)c3)c2)C2=CN=NC2NC2=C1C(=O)CC(C)(C)C2 (some centres undefined) [US20250313563, Compound 943995] |
| 1000 to 5000 nM | > 5000 nM | CC[C@@]1(c2cccc(S(C)(=O)=O)c2)C2=C(CC(C)(C)NC2=O)NC2N=NC(C)=C21 (some centres undefined) [US20250313563, Compound 947815] |
| > 5000 nM | > 5000 nM | CC[C@@]1(c2ccccc2)C2=CN=NC2NC2=C1C(=O)[C@@H](F)C(C)(C)C2 (some centres undefined) [US20250313563, Compound 826767] |
| 100 to 1000 nM | > 1670 nM | CC[C@@]1(c2ccccc2)C2=CN=NC2NC2=C1C(=O)C[C@@H](C(F)(F)F)C2 (some centres undefined) [US20250313563, Compound 806609] |
| < 100 nM | < 100 nM | CC(C)n1cc(S(=O)(=O)N2CCC3(CC2)C2=C(N=NC2)NC2=C3C(=O)CC(C)(C)C2)cn1 [US20250313563, Compound 947607] |
| 100 to 1000 nM | 1000 to 5000 nM | CCc1cc(N(C)c2cccc(C3(CC)C4=CN=NC4NC4=C3C(=O)CC(C)(C)C4)c2)ccn1 (centres undefined) [US20250313563, Compound 945600] |
| > 5000 nM | > 5000 nM | CC[C@]1(c2cccc(C(F)(F)F)c2)C2=CN=NC2NC2=C1C(=O)NC(C)(C)C2 (some centres undefined) [US20250313563, Compound 913004] |
| < 100 nM | < 100 nM | CCC1(c2cccc(-c3cncn3C)c2)C2=C(CC(C)(C)NC2=O)NC2N=NC(C(F)(F)F)=C21 (centres undefined) [US20250313563, Compound 948180] |
| 100 to 1000 nM | 1000 to 5000 nM | CC[C@@H]1C[C@]2(CO1)C1=C(N=NC1)NC1=C2C(=O)CC(C)(C)C1 [US20250313563, Compound 913213] |
| > 5000 nM | > 5000 nM | CC[C@]1(c2cccc(-c3cnn(C(C)(C)C)c3)c2)C2=CN=NC2NC2=C1C(=O)NC(C)(C)C2 (some centres undefined) [US20250313563, Compound 949107] |
| < 100 nM | < 100 nM | C[C@@H]1C[C@@H]2C[C@@]3(C[C@@H]2C1)C1=CN=NC1NC1=C3C(=O)CC(C)(C)C1 (some centres undefined) [US20250313563, Compound 943898] |
| < 100 nM | < 100 nM | CCC1(c2cccc(S(C)(=O)=O)c2)C2=C(CC(C)(C)NC2=O)NC2N=NC(C(F)(F)F)=C21 (centres undefined) [US20250313563, Compound 947799] |

| IC50 [1] | IC50 [2] | Compound |
| --- | --- | --- |
| < 100 nM | < 100 nM | CCCC(=O)N1CC2(C1)CC1(CO2)C2=C(N=NC2)NC2=C1C(=O)CC(C)(C)C2 (centres undefined) [US20250313563, Compound 947300] |
| 100 to 1000 nM | > 5000 nM | CCC1(c2cccc(C(F)(F)F)c2)C2=CN=NC2NC2=C1C(=O)N(c1ncn(C)c1C)CC2 (centres undefined) [US20250313563, Compound 951598] |
| 1000 to 5000 nM | > 5000 nM | CC1(C)CC(=O)C2=C(C1)NC1=C(CN=N1)[C@@]21CCO[C@@H](C(F)(F)F)C1 [US20250313563, Compound 884024] |
| < 100 nM | < 100 nM | CC1(C)CC(=O)C2=C(C1)NC1=C(CN=N1)C21CCN(S(=O)(=O)c2ccc(F)c(Cl)c2)CC1 [US20250313563, Compound 948117] |
| 100 to 1000 nM | 1000 to 5000 nM | CC[C@@]1(c2cccc([C@@H](C)c3ncccn3)c2)C2=CN=NC2NC2=C1C(=O)CC(C)(C)C2 (some centres undefined) [US20250313563, Compound 948061] |
| 100 to 1000 nM | 1000 to 5000 nM | CC[C@]1(c2cccc(-c3cnn4c3CCCC4)c2)C2=CN=NC2NC2=C1C(=O)CC(C)(C)C2 (some centres undefined) [US20250313563, Compound 945543] |
| < 100 nM | < 100 nM | CC[C@@]1(c2cccc(-c3ccncc3F)c2)C2=C(CC(C)(C)NC2=O)NC2N=NC(C(F)(F)F)=C21 (some centres undefined) [US20250313563, Compound 948777] |
| > 5000 nM | > 5000 nM | CC[C@]1(c2ccccc2)C2=CN=NC2NC2=C1C(=O)CC(C)(C)[C@@H]2F (some centres undefined) [US20250313563, Compound 957196] |
| < 100 nM | < 100 nM | C[C@@H]1CC[C@@]2(C1)C1=C(N=NC1)NC1=C2C(=O)CC(C)(C)C1 [US20250313563, Compound 897750] |
| < 100 nM | < 100 nM | CCC1(c2cccc(-c3ccnc(C)c3OC)c2)C2=CN=NC2NC2=C1C(=O)CC(C)(C)C2 (centres undefined) [US20250313563, Compound 945458] |
| < 100 nM | < 100 nM | CCC1(c2cccc(N(CCc3ccccc3)C(C)=O)c2)C2=CN=NC2NC2=C1C(=O)CC(C)(C)C2 (centres undefined) [US20250313563, Compound 912064] |
| < 100 nM | < 100 nM and 100 to 1000 nM | CC1(C)CC(=O)C2=C(C1)NC1=C(CN=N1)C21CCN(S(=O)(=O)Cc2ccccc2)CC1 [US20250313563, Compound 929437] |
| < 100 nM | 100 to 1000 nM | CC[C@]1(c2cccc(N(C)c3ccncc3)c2)C2=CN=NC2NC2=C1C(=O)CC(C)(C)C2 (some centres undefined) [US20250313563, Compound 874260] |
| 100 to 1000 nM | 1000 to 5000 nM | CC1(C)CC(=O)C2=C(C1)NC1=C(CN=N1)[C@]21CO[C@H](C2CC2)C1 [US20250313563, Compound 913184] |
| 100 to 1000 nM | 100 to 1000 nM | CC[C@]1(c2cccc(-c3ccncc3Cl)c2)C2=CN=NC2NC2=C1C(=O)NC(C)(C)C2 (some centres undefined) [US20250313563, Compound 948020] |
| < 100 nM | 100 to 1000 nM | CC[C@]1(c2cccc(-c3ccnc(C)c3)c2)C2=C(N=NC2)NC2=C1C(=O)C(C)(C)C2 [US20250313563, Compound 950282] |
| 1000 to 5000 nM | > 5000 nM | CC[C@]1(c2cccc(-c3ccnc(CCO)c3)c2)C2=CN=NC2NC2=C1C(=O)CC(C)(C)C2 (some centres undefined) [US20250313563, Compound 947816] |
| < 100 nM | < 100 nM | CC1(C)CC(=O)C2=C(C1)NC1=C(CN=N1)C21COC2(CN(C(=O)C3CC3)C2)C1 (centres undefined) [US20250313563, Compound 947297] |
| 100 to 1000 nM | > 5000 nM | CC[C@]1(c2cccc(N(C)c3ncccn3)c2)C2=C(CC(C)(C)NC2=O)NC2N=NC(F)=C21 (some centres undefined) [US20250313563, Compound 949647] |
| 100 to 1000 nM | 1000 to 5000 nM | CC[C@]1(c2cccc(N(C)c3cccnn3)c2)C2=CN=NC2NC2=C1C(=O)CC(C)(C)C2 (some centres undefined) [US20250313563, Compound 911975] |
| < 100 nM | 100 to 1000 nM | CC[C@]1(c2cccc(-c3cc(C)nn3C)c2)C2=CN=NC2NC2=C1C(=O)CC(C)(C)[C@@H]2F (some centres undefined) [US20250313563, Compound 947655] |
| 100 to 1000 nM | 1000 to 5000 nM | CC[C@]1(c2cccc(-c3cncn3C)c2)C2=CN=NC2NC2=C1C(=O)CC(C)(C)C2 (some centres undefined) [US20250313563, Compound 945620] |
| < 100 nM | < 100 nM and 100 to 1000 nM | CC1(C)CC(=O)C2=C(C1)NC1=C(CN=N1)C21CCN(S(=O)(=O)C2CCCC2)CC1 [US20250313563, Compound 909206] |
| < 100 nM | < 100 nM | Cc1nccc([C@H]2CC[C@]3(CC2)C2=C(N=NC2)NC2=C3C(=O)CC(C)(C)C2)c1C [US20250313563, Compound 950478] |
| < 100 nM | < 100 nM | CC1(C)CC(=O)C2=C(C1)NC1=C(CN=N1)C21CCC(S(C)(=O)=O)CC1 (centres undefined) [US20250313563, Compound 913356] |
| 1000 to 5000 nM | > 5000 nM | CC[C@]1(c2cccc(-c3ccnc4c3CCC4)c2)C2=CN=NC2NC2=C1C(=O)CC(C)(C)C2 (some centres undefined) [US20250313563, Compound 945619] |
